Laboratory results from ChEMBL document CHEMBL1201862, “PubChem BioAssay data set” (2004).
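Step 1: Grow cells in 96-well plates. Step 2: Expose to compound for 48 hours at 5 concentrations. Step 3: Interpolate endpoints linearly; if unreached, use highest concentration. GI50 marks 50% less growth.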 The source made the active and inactive calls. Cut-off read from the data, not from the text of the source: active = GI50 up to about 1.1 µM and inactive = higher.

Legend:
Assay in all cases: NCI anticancer screen, dose series, 48 h
A549 = system: A549
CCRF-CEM = system: CCRF-CEM
DU-145 = system: DU-145
EKVX = system: EKVX
HCC 2998 = system: HCC 2998
HCT-116 = system: HCT-116
HL-60 = system: HL-60
MDA-MB-231 = system: MDA-MB-231
MDA-MB-435 = system: MDA-MB-435
Malme-3M = system: Malme-3M
NCI-H23 = system: NCI-H23
NCI-H522 = system: NCI-H522
OVCAR-4 = system: OVCAR-4
SF-268 = system: SF-268
SF-295 = system: SF-295
SK-MEL-28 = system: SK-MEL-28
SNB-19 = system: SNB-19
T47D = system: T47D
UO-31 = system: UO-31

Measured: GI50

N#C/C=c1/c2ccccc2n2nc3ccccc3c12
inactive: A549 30.2 µM | CCRF-CEM 81.7 µM | DU-145 > 100 µM | EKVX 24.5 µM | HCC 2998 26.5 µM | HCT-116 3.09 µM | HL-60 > 100 µM | MDA-MB-231 3.61 µM | MDA-MB-435 > 100 µM | Malme-3M 46.6 µM | NCI-H23 22.3 µM | NCI-H522 12.5 µM | OVCAR-4 11.6 µM | SF-268 10.9 µM | SF-295 21.7 µM | SK-MEL-28 > 100 µM | SNB-19 16 µM | T47D > 100 µM | UO-31 10.8 µM

CC(C)(C)C(=O)C(CC(=O)c1ccccc1)C(=O)C(C)(C)C
inactive: A549 > 100 µM | CCRF-CEM > 100 µM | DU-145 > 100 µM | EKVX > 100 µM | HCC 2998 > 100 µM | HCT-116 > 100 µM | HL-60 > 100 µM | MDA-MB-231 > 100 µM | MDA-MB-435 > 100 µM | Malme-3M > 100 µM | NCI-H23 > 100 µM | NCI-H522 > 100 µM | OVCAR-4 > 100 µM | SF-268 83.9 µM | SF-295 > 100 µM | SK-MEL-28 > 100 µM | SNB-19 > 100 µM | T47D > 100 µM | UO-31 > 100 µM

COc1ccc(C(C)NNC(=O)c2ccncc2)c(OC)c1 (stereo unspecified)
inactive: A549 > 100 µM | CCRF-CEM > 100 µM | DU-145 > 100 µM | EKVX > 100 µM | HCC 2998 > 100 µM | HCT-116 > 100 µM | HL-60 > 100 µM | MDA-MB-231 > 100 µM | MDA-MB-435 > 100 µM | Malme-3M > 100 µM | NCI-H23 > 100 µM | NCI-H522 > 100 µM | OVCAR-4 > 100 µM | SF-268 > 100 µM | SF-295 > 100 µM | SK-MEL-28 > 100 µM | SNB-19 > 100 µM | T47D > 100 µM | UO-31 > 100 µM

CC(=O)Nc1cc(C(=O)Nc2cc(C(=O)Nc3cc(C(=O)Nc4cc(C(=O)Nc5cc(C(=O)NCCC(=O)NCCCN(C)C)n(C)c5)n(C)c4)n(C)c3)n(C)c2)n(C)c1
inactive: A549 > 100 µM | CCRF-CEM 27.8 µM | DU-145 > 100 µM | EKVX > 100 µM | HCC 2998 50.4 µM | HCT-116 37.3 µM | HL-60 41.2 µM | MDA-MB-231 > 100 µM | MDA-MB-435 36.8 µM | Malme-3M 27.5 µM | NCI-H23 > 100 µM | NCI-H522 17.9 µM | OVCAR-4 > 100 µM | SF-268 71.3 µM | SF-295 > 100 µM | SK-MEL-28 67.6 µM | SNB-19 > 100 µM | T47D 31.5 µM | UO-31 > 100 µM
